Results published in PMC11648835 (Chemmedchem, 2024).
“Also recorded” adds a separate entry of the source.

Columns and labels:
[1] = test system: Mtb-infected human THP-1 macrophages; type: cell-based, Mycobacterium tuberculosis
[2] = test system: Mycobacterium tuberculosis mc^26206 (WT); type: cell-based
[3] = test system: Mtb strain mc^26206 wild-type, hypoxic non-replicating; type: cell-based, Mycobacterium tuberculosis
[4] = test system: panel of bacteria consisting of S. aureus, E. faecium, E. coli, K. pneumoniae, A. baumannii and P. aeruginosa; type: cell-based

COCOc1ccc2nc3ccc(=O)c(I)c-3oc2c1 [Compound 8h, 4‐Iodo‐7‐(methoxymethoxy)‐3H‐phenoxazin‐3‐one]
intracellular anti-tuberculosis activity (in words) [1]: intracellular TB killing

O=c1ccc2nc3ccc(OCCO)cc3oc-2c1 [Compound 6s, 7‐(2‐Hydroxyethoxy)‐3H‐phenoxazin‐3‐one]
anti-tuberculosis activity against wild type Mtb (in words) [2]: completely inactive

O=c1ccc2nc3ccc(OCc4ccccc4)cc3oc-2c1 [Compound 6g, 7‐(Benzyloxy)‐3H‐phenoxazin‐3‐one]
anti-tuberculosis activity against wild type Mtb (in words) [2]: no anti‐tuberculosis activity

COc1ccc2nc3ccc(=O)cc-3oc2c1 [Compound 6j, 7‐Methoxy‐3H‐phenoxazin‐3‐one]
time-kill kinetic assay under hypoxia (in words) [3]: inactive

COCCOc1ccc2nc3ccc(=O)cc-3oc2c1 [Compound 6i, 7‐(2‐Methoxyethoxy)‐3H‐phenoxazin‐3‐one]
intracellular Mtb survival [1]: approximately 10%
intracellular anti-tuberculosis activity (in words) [1]: intracellular TB killing

O=c1ccc2nc3ccc(OCc4ccc([N+](=O)[O-])cc4)cc3oc-2c1 [Compound 6b, 7‐((4‐Nitrobenzyl)oxy)‐3H‐phenoxazin‐3‐one]
MIC90 Mtb WT [2]: >256 µM
anti-tuberculosis activity against wild type Mtb (in words) [2]: no anti‐tuberculosis activity

O=c1ccc2nc3ccc(O)cc3oc-2c1 [Compound 2, resorufin, reference compound]
anti-tuberculosis activity against wild type Mtb (in words) [2]: no anti‐tuberculosis activity; also recorded: inactive
activity against a panel of bacteria (in words) [4]: inactive

O=c1ccc2nc3ccc(OCc4ccc([N+](=O)[O-])o4)cc3oc-2c1 [Compound 1, 7‐((5‐Nitrofuran‐2‐yl)methoxy)‐3H‐phenoxazin‐3‐one]
intracellular anti-tuberculosis activity (in words) [1]: intracellular TB killing
time-kill kinetic assay under hypoxia (in words) [3]: inactive
activity against a panel of bacteria (in words) [4]: inactive

O=c1ccc2nc3ccc(OCC4(CO)COC4)cc3oc-2c1 [Compound 6y, 7‐((3‐(Hydroxymethyl)oxetan‐3‐yl)methoxy)‐3H‐phenoxazin‐3‐one]
anti-tuberculosis activity against wild type Mtb (in words) [2]: completely inactive
